Measured values taken from patent US6521407B1, “Methods for determining chemosensitivity of cancer cells based upon expression of negative and positive signal transduction factors” (TheRyte Limited, priority 1998, dated 2003).

Tests used:
Format in all cases: cell-based, human
[1] = test system: RT112; test: Clonogenic cell survival assay (D0.1), RT112; conditions: RT112, p53 mutant, undetectable p21; for Absolute D0.1: dose reducing clonogenic survival to 10% of control, 14 days exposure
Experimental: (§1) The growth characteristics clonogenic assay procedures of the 11 human in vitro cell lines used in this analysis have already been reported e.g. in Britten R. A. and Warenius H., Eur. J. Canc. 29A, 1315-1320 (1993). The cell lines are listed, with their histological classification in Table 4. All are well established; many having been growing in vitro for several years. Cell lines were either donations or purchased by our laboratories. On receipt all were grown for 5 passages to provide sufficient cells for batch storage in liquid nitrogen. During this period contamination was excluded by at least one passage in antibiotic free medium and mycoplasma testing was carried out on all lines. For clonogenic assays, cells were taken from a designated primary liquid nitrogen batch and grown for 3-6 passages until there were sufficient well-growing cells. Further batches from these cells were frozen in liquid nitrogen. Cells were routinely maintained in DMEM medium. All lines were supplemented with 10% heat-inactivated foetal calf serum (HIFCS). […] The D0.1 values were obtained by several independent clonogenic assays and the data fitted by linear regression analysis. The clonogenic assays were repeated until statistically satisfactory fits were achieved on linear regression. The D0.1 values were obtained by interpolation of the linear regression lines. The cytotoxic drug D0.1 values have been normalised and expressed as relative D0.1 values, to enable the relative sensitivity of each cell to each of the drugs to be compared.
(§2) In order to assay CDDP sensitivity 10^2-10^5 cells were plated in 3 ml of Ham's F12 medium supplemented with 10% FCS in 6 well plates and incubated at 37° C. in an atmosphere of 5% CO2 for 8 hours. […] The medium was then removed, the cells were fixed in 70% ethanol and stained with 10% Giemsa and colonies of >100 cells counted. […] CDDP cell survival was determined at the 10% clonogenic cell survival level (D0.1) by interpolation of the fitted regression curve. […]

[2] = test system: OAW42; test: Clonogenic cell survival assay (D0.1), OAW42; conditions: OAW42, p53 wild-type, detectable p21
Experimental: (§3) The growth characteristics clonogenic assay procedures of the 11 human in vitro cell lines used in this analysis have already been reported e.g. in Britten R. A. and Warenius H., Eur. J. Canc. 29A, 1315-1320 (1993). The cell lines are listed, with their histological classification in Table 4. All are well established; many having been growing in vitro for several years. Cell lines were either donations or purchased by our laboratories. On receipt all were grown for 5 passages to provide sufficient cells for batch storage in liquid nitrogen. During this period contamination was excluded by at least one passage in antibiotic free medium and mycoplasma testing was carried out on all lines. For clonogenic assays, cells were taken from a designated primary liquid nitrogen batch and grown for 3-6 passages until there were sufficient well-growing cells. Further batches from these cells were frozen in liquid nitrogen. Cells were routinely maintained in DMEM medium. All lines were supplemented with 10% heat-inactivated foetal calf serum (HIFCS). […]
(§4) In order to assay CDDP sensitivity 10^2-10^5 cells were plated in 3 ml of Ham's F12 medium supplemented with 10% FCS in 6 well plates and incubated at 37° C. in an atmosphere of 5% CO2 for 8 hours. […] The medium was then removed, the cells were fixed in 70% ethanol and stained with 10% Giemsa and colonies of >100 cells counted.

[3] = test system: MOR; test: Clonogenic cell survival assay (D0.1), MOR; conditions: p53 mutant
Experimental: as §3, §4

[4] = test system: HRT18; test: Clonogenic cell survival assay (D0.1), HRT18; conditions: HRT18, p53 wild-type, detectable p21; for Absolute D0.1: dose reducing clonogenic survival to 10% of control, 14 days exposure
Experimental: as §1, §2

[5] = test system: MEL2; test: Clonogenic cell survival assay (D0.1), MEL2; conditions: MEL2, p53 mutant, undetectable p21; for Absolute D0.1: dose reducing clonogenic survival to 10% of control, 14 days exposure
Experimental: as §1, §2

[6] = test system: 2780; test: Clonogenic cell survival assay (D0.1), 2780; conditions: 2780, p53 wild-type, detectable p21; for Absolute D0.1: dose reducing clonogenic survival to 10% of control, 14 days exposure
Experimental: as §1, §2

[7] = test system: CORL23; test: Clonogenic cell survival assay (D0.1), CORL23; conditions: CORL23, p53 wild-type, detectable p21; for Absolute D0.1: dose reducing clonogenic survival to 10% of control, 14 days exposure
Experimental: as §1, §2

[8] = test system: HT29; test: Clonogenic cell survival assay (D0.1), HT29; conditions: HT29, p53 mutant, undetectable p21; for Absolute D0.1: dose reducing clonogenic survival to 10% of control, 14 days exposure
Experimental: as §1, §2

[9] = test system: MGHU1; test: Clonogenic cell survival assay (D0.1), MGHU1; conditions: MGHU1, p53 wild-type, detectable p21; for Absolute D0.1: dose reducing clonogenic survival to 10% of control, 14 days exposure
Experimental: as §1, §2

[10] = test system: I407; test: Clonogenic cell survival assay (D0.1), I407; conditions: 1407 (I407), p53 wild-type, detectable p21; for Absolute D0.1: dose reducing clonogenic survival to 10% of control, 14 days exposure
Experimental: as §1, §2

[11] = test system: A431; test: Clonogenic cell survival assay (D0.1), A431; conditions: A431, p53 mutant, undetectable p21; for Absolute D0.1: dose reducing clonogenic survival to 10% of control, 14 days exposure
Experimental: as §1, §2

[12] = absolute D0.1 divided by mean D0.1 of the drug

Row | SMILES | Absolute D0.1 [1] | Absolute D0.1 [4] | Absolute D0.1 [5] | Absolute D0.1 [6] | Absolute D0.1 [7] | Absolute D0.1 [8] | Absolute D0.1 [9] | Absolute D0.1 [10] | Absolute D0.1 [11] | further results
1 | N.N.[Cl][Pt][Cl] [CDDP, cis-diamminedichloroplatinum] | 0.237 | 0.864 | 0.457 | 0.255 | 0.338 | 0.632 | 0.4494 | 0.06 | 0.306 | Relative D0.1 [1, 12]: 0.593; Relative D0.1 [2, 12]: 0.27; Absolute D0.1 ([2]; dose reducing clonogenic survival to 10% of control, 14 days exposure): 0.108; Relative D0.1 ([3]; undetectable p21, absolute D0.1 divided by mean D0.1 of the drug): 1.573; Absolute D0.1 ([3]; undetectable p21, dose reducing clonogenic survival to 10% of control, 14 days exposure): 0.629; Relative D0.1 [4, 12]: 2.16; Relative D0.1 [5, 12]: 1.143; Relative D0.1 [6, 12]: 0.637; Relative D0.1 [7, 12]: 0.845; Relative D0.1 [8, 12]: 1.58; Relative D0.1 [9, 12]: 1.235; Relative D0.1 [10, 12]: 0.15; Relative D0.1 [11, 12]: 0.765
2 | CC(=O)O[C@H]1C(=O)[C@@]2(C)[C@H]([C@H](OC(=O)c3ccccc3)[C@]3(O)C[C@H](OC(=O)[C@H](O)[C@@H](NC(=O)c4ccccc4)c4ccccc4)C(C)=C1C3(C)C)[C@]1(OC(C)=O)CO[C@@H]1C[C@@H]2O [Paclitaxel (TAXOL), Paclitaxel] | 1.523 | 10.415 | 0.57 | 2.113 | 0.497 | 1.106 | 1.144 | 1.504 | 0.823 | 
